# From ChEMBL document CHEMBL4477259, “Discovery and structure-activity relationships of a novel isothiazolone class of bacterial type II topoisomerase inhibitors” (Bioorg Med Chem Lett, 2016)
# Key:
# Pseudomonas aeruginosa = assay: Antibacterial activity against Pseudomonas aeruginosa ATCC 27853; assay type: functional
# Klebsiella pneumoniae = assay: Antibacterial activity against Klebsiella pneumoniae ATCC 700603; assay type: functional
# [1] = n-octanol/phosphate buffer partition coefficient, log D of compound at pH 7.4 by shake-flask assay; assay type: physicochemical
# Staphylococcus aureus = assay: Antibacterial activity against Staphylococcus aureus ATCC 29213; assay type: functional
# HepG2 = assay: Cytotoxicity against human HepG2 cells after 24 hrs by cell titre-glo assay; assay type: cell-based; conditions: HepG2, 24 h
# Escherichia coli [2] = assay: Antibacterial activity against Escherichia coli N43; assay type: functional
# Acinetobacter baumannii = assay: Antibacterial activity against Acinetobacter baumannii NCTC 13420; assay type: functional
# hERG (KCNH2) = hERG (KCNH2) (Homo sapiens, UniProt Q12809); assay: Inhibition of human ERG channel at 100 uM by automated patch clamp assay
# hERG (KCNH2), sequence (Q12809 whole entry): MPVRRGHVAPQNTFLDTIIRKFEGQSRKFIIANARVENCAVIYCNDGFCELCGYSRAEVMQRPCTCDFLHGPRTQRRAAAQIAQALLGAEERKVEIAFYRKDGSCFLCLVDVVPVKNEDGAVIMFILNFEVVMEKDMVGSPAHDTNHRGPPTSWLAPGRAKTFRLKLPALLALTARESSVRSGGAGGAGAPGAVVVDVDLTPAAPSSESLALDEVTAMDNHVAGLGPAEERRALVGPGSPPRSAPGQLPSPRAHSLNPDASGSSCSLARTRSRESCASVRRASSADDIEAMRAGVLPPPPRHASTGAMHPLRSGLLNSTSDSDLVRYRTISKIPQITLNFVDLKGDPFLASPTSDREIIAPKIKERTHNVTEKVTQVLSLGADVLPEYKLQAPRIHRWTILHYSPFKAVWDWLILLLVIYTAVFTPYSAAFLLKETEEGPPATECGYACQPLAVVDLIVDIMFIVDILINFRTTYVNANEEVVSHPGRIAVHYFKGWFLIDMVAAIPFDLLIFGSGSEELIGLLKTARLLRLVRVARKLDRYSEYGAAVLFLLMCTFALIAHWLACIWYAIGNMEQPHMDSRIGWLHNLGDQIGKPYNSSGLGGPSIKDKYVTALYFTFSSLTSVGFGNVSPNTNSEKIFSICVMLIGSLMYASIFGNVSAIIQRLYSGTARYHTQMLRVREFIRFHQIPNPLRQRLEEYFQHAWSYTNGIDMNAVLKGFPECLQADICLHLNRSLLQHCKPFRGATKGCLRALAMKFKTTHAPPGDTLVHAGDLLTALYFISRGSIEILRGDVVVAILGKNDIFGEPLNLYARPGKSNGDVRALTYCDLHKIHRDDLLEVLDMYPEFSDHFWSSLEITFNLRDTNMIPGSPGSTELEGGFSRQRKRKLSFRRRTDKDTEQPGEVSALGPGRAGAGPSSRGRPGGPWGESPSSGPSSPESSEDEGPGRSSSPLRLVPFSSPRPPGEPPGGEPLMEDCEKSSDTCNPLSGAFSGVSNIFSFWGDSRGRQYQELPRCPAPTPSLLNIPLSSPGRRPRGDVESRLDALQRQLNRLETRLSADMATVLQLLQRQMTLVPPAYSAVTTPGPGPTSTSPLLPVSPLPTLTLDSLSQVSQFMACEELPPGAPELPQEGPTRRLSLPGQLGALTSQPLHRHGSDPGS
# Escherichia coli [3] = assay: Antibacterial activity against Escherichia coli W4573; assay type: functional
# Escherichia coli [4] = assay: Selectivity ratio of MIC for Escherichia coli LM367 harboring delta marR/delta acrR double mutant to MIC for wild type Escherichia coli LM179; assay type: functional
# Escherichia coli [5] = assay: Antibacterial activity against wild type Escherichia coli LM179; assay type: functional
# Escherichia coli [6] = assay: Selectivity ratio of MIC for Escherichia coli LM705 harboring GyrA S83L/D87N double mutant/ParC S80I mutant/delta marR/delta acrR double mutant to MIC for wild type Escherichia coli LM179; assay type: functional
# Escherichia coli [7] = assay: Antibacterial activity against Escherichia coli LM625 harboring GyrA S83L/D87N double mutant; assay type: functional
# Escherichia coli [8] = assay: Antibacterial activity against Escherichia coli CH440 harboring GyrA S83L/D87N double mutant/ParC S80I E84V double mutant/aac(6')-lb-cr; assay type: functional
# Escherichia coli [9] = assay: Selectivity ratio of MIC for Escherichia coli LM625 harboring GyrA S83L/D87N double mutant to MIC for wild type Escherichia coli LM179; assay type: functional
# Escherichia coli [10] = assay: Selectivity ratio of MIC for Escherichia coli CH418 harboring GyrA S83L/D87N double mutant/ParC S80I E84G double mutant/qnrA to MIC for wild type Escherichia coli LM179; assay type: functional
# Escherichia coli [11] = assay: Antibacterial activity against Escherichia coli CH418 harboring GyrA S83L/D87N double mutant/ParC S80I E84G double mutant/qnrA; assay type: functional
# Escherichia coli [12] = assay: Selectivity ratio of MIC for Escherichia coli CH440 harboring GyrA S83L/D87N double mutant/ParC S80I E84V double mutant/aac(6')-lb-cr to MIC for wild type Escherichia coli LM179; assay type: functional
# Escherichia coli [13] = assay: Antibacterial activity against Escherichia coli LM693 harboring GyrA S83L/D87N double mutant/ParC S80I mutant; assay type: functional
# Escherichia coli [14] = assay: Selectivity ratio of MIC for Escherichia coli LM693 harboring GyrA S83L/D87N double mutant/ParC S80I mutant to MIC for wild type Escherichia coli LM179; assay type: functional
# Escherichia coli [15] = assay: Antibacterial activity against Escherichia coli CH460 harboring GyrA S83L/D87N double mutant/ParC S80I E84V double mutant/qepA; assay type: functional
# Escherichia coli [16] = assay: Antibacterial activity against Escherichia coli CH448 harboring GyrA S83L mutant/qnrS; assay type: functional
# Escherichia coli [17] = assay: Antibacterial activity against Escherichia coli LM705 harboring GyrA S83L/D87N double mutant/ParC S80I mutant/delta marR/delta acrR double mutant; assay type: functional
# Escherichia coli [18] = assay: Antibacterial activity against Escherichia coli LM367 harboring delta marR/delta acrR double mutant; assay type: functional
# Escherichia coli [19] = assay: Selectivity ratio of MIC for Escherichia coli CH460 harboring GyrA S83L/D87N double mutant/ParC S80I E84V double mutant/qepA to MIC for wild type Escherichia coli LM179; assay type: functional
# Escherichia coli [20] = assay: Selectivity ratio of MIC for Escherichia coli CH448 harboring GyrA S83L mutant/qnrS to MIC for wild type Escherichia coli LM179; assay type: functional
SMILES,MIC (Pseudomonas aeruginosa),MIC (Klebsiella pneumoniae),MIC (Staphylococcus aureus),MIC (Escherichia coli [2]),MIC (Acinetobacter baumannii),MIC (Escherichia coli [3]),IC50 (HepG2),other results
CCc1c(-c2ccc(N3C[C@@H]4CCCN(C)[C@@H]4C3)cc2)[nH]c(=O)c2c(=O)[nH]sc12,32 µg/mL,64 µg/mL,4 µg/mL,1 µg/mL,64 µg/mL,4 µg/mL,–,Selectivity ratio (Escherichia coli [4]): 4; MIC (Escherichia coli [5]): 4 µg/mL; Selectivity ratio (Escherichia coli [6]): >16; MIC (Escherichia coli [7]): 16 µg/mL; MIC (Escherichia coli [8]): > 64 µg/mL; Selectivity ratio (Escherichia coli [9]): 4; Selectivity ratio (Escherichia coli [10]): 16; MIC (Escherichia coli [11]): 64 µg/mL; Selectivity ratio (Escherichia coli [12]): >16; MIC (Escherichia coli [13]): > 64 µg/mL; Selectivity ratio (Escherichia coli [14]): >16; MIC (Escherichia coli [15]): 64 µg/mL; MIC (Escherichia coli [16]): 32 µg/mL; MIC (Escherichia coli [17]): > 64 µg/mL; MIC (Escherichia coli [18]): 16 µg/mL; Selectivity ratio (Escherichia coli [19]): 16; Selectivity ratio (Escherichia coli [20]): 8
CCc1c(-c2ccc(N3CCC(NC)CC3)cc2)[nH]c(=O)c2c(=O)[nH]sc12,64 µg/mL,> 64 µg/mL,16 µg/mL,1 µg/mL,> 64 µg/mL,32 µg/mL,–,–
CCc1c(-c2ccc(N3CCC(NC)C3)cc2)[nH]c(=O)c2c(=O)[nH]sc12 (stereo not drawn),0.06 µg/mL,2 µg/mL,0.12 µg/mL,0.001 µg/mL,16 µg/mL,0.008 µg/mL,> 128 µg/mL,logD [1]: 1.2; inhibition at 100 µM (hERG (KCNH2)): 34%
CCc1c(-c2ccc(N3CC[C@@H](N(C)C)C3)cc2)[nH]c(=O)c2c(=O)[nH]sc12,1 µg/mL,8 µg/mL,2 µg/mL,0.03 µg/mL,4 µg/mL,0.5 µg/mL,–,–
CCc1c(-c2ccc(N3C[C@@H]4CCCN[C@@H]4C3)cc2)[nH]c(=O)c2c(=O)[nH]sc12,1 µg/mL,4 µg/mL,1 µg/mL,0.008 µg/mL,8 µg/mL,0.5 µg/mL,–,–
O=C(O)c1cn(C2CC2)c2cc(N3CCNCC3)c(F)cc2c1=O [CIPROFLOXACIN],1 µg/mL,0.25 µg/mL,0.25 µg/mL,–,–,–,> 128 µg/mL,MIC (Escherichia coli [8]): > 64 µg/mL; MIC (Escherichia coli [11]): 64 µg/mL; MIC (Escherichia coli [15]): > 64 µg/mL; MIC (Escherichia coli [17]): 64 µg/mL

# Continued, in another order:
MIC (Pseudomonas aeruginosa),MIC (Klebsiella pneumoniae),MIC (Staphylococcus aureus),MIC (Escherichia coli [2]),MIC (Acinetobacter baumannii),MIC (Escherichia coli [3]),SMILES,IC50 (HepG2),other results
0.5 µg/mL,4 µg/mL,0.12 µg/mL,0.03 µg/mL,32 µg/mL,0.25 µg/mL,CCc1c(-c2ccc(N3CC[C@H](O)C3)cc2)[nH]c(=O)c2c(=O)[nH]sc12,> 16 µg/mL,logD [1]: 1.5; inhibition at 100 µM (hERG (KCNH2)): 22%
> 128 µg/mL,> 128 µg/mL,32 µg/mL,–,> 128 µg/mL,–,CCc1c(-c2cccc(N3CCC(NC)C3)c2)[nH]c(=O)c2c(=O)[nH]sc12 (stereo not drawn),–,–
4 µg/mL,> 64 µg/mL,0.12 µg/mL,0.12 µg/mL,> 64 µg/mL,0.5 µg/mL,CCc1c(-c2ccc(N3CCC(F)(F)C3)cc2)[nH]c(=O)c2c(=O)[nH]sc12,–,–
64 µg/mL,> 64 µg/mL,16 µg/mL,0.5 µg/mL,> 64 µg/mL,16 µg/mL,CCc1c(-c2ccc(N3CCC(N(C)C)CC3)cc2)[nH]c(=O)c2c(=O)[nH]sc12,–,–
